Reference: paper PMC10485003, “Antibiotic hyper-resistance in a class I aminoacyl-tRNA synthetase with altered active site signature motif” (Nature Communications, 2023)
Where “and” joins values, the source holds several entries; their conditions need not be identical. Identical values can stand only once.

Legend:
mut-HVGH DrIleRS2 = molecular target: T1, mut-HVGH DrIleRS2 (Deinococcus radiodurans, UniProt Q9RUP8, A59H/H61G/L60V); test: biochemical
T1 construct: hexa-histidine tag (pET28b(+)) (N); made in house; host or cells: E. coli BL21(DE3)
T1 sequence (Q9RUP8 1-1078 A59H/L60V/H61G): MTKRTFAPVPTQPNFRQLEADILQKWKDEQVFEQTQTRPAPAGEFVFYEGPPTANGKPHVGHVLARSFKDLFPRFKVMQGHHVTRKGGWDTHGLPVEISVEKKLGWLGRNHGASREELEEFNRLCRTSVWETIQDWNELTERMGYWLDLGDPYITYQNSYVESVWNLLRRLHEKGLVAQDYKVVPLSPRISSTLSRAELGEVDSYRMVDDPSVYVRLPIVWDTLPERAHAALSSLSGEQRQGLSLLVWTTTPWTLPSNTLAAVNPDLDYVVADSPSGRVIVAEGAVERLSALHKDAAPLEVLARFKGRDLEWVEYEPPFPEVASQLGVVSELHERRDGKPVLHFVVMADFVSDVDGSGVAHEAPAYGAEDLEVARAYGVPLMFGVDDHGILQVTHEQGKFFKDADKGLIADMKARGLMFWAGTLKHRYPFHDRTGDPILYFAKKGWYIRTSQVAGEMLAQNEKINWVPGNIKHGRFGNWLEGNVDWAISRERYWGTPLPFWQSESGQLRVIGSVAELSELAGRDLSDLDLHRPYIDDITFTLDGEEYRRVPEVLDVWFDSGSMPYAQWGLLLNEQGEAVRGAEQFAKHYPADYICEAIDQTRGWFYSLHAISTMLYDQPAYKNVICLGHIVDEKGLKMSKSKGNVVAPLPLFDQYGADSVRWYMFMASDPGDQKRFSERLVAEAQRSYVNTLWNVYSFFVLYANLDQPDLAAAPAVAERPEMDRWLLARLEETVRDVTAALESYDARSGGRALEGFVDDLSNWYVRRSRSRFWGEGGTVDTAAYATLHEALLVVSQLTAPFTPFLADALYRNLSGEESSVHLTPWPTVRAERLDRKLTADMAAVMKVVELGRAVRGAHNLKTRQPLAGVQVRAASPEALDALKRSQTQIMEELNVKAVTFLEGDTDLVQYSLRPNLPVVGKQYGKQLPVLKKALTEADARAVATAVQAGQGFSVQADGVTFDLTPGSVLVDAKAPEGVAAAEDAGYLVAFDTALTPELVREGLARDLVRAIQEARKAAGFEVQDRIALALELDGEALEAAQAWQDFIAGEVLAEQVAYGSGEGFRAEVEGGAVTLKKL
Protocol: (§1) L-Ile and ATP concentrations ranged from 1/10 KM to 10 KM values. When measuring the KI towards one of the substrates, the other was held in saturation (concentrations at least 10 KM). The aliquots of the reaction mixture (1–2.5 μl) were quenched in 2 volumes of 500 mM NaOAc pH = 4.5, 0.1% SDS, and formed ^32P-ATP was separated from the remaining ^32P-PPi by thin-layer chromatography on Polygram CEL 300 PEI UV254 TLC plates (Macherey-Nagel, cat: 801063) using 750 mM KH2PO4 pH=3.5, 4 M urea buffer. Visualization and quantification of the signals was performed using a Typhoon Phosphoimager 5 (General Electric) and accompanying ImageQuant™ TL software (SV: 10.2). The kinetic constants were determined using a global fit option of the competitive inhibition model of GraphPad Prism 6 software (SV: 6.01). All experiments were performed in triplicates. The kcat was determined by dividing the maximal velocity, VM, with the used enzyme concentration. […]
(§2) variable substrate (ATP or Ile) was varied in the range of 0.1 KM to 10 KM. The other substrate (Ile or ATP) was kept in excess at 5 to 10 KM. Data were globally fitted to the competitive inhibition model using GraphPad prism 6.01 for Windows software. The values represent the average value ± SD of three independent experiments. Source data are provided as a Source Data file.
(§3) (1 picture or pasted object on this page, not shown here)

mut-GVHH TtIleRS2 = molecular target: T2, mut-GVHH TtIleRS2 (Thermus thermophilus, UniProt P56690, G56H/H54G); test: biochemical
T2 construct: hexa-histidine tag (pET28b(+)) (N); made in house; host or cells: E. coli Rosetta2 (DE3)
T2 sequence (P56690 1-1043 H54G/G56H): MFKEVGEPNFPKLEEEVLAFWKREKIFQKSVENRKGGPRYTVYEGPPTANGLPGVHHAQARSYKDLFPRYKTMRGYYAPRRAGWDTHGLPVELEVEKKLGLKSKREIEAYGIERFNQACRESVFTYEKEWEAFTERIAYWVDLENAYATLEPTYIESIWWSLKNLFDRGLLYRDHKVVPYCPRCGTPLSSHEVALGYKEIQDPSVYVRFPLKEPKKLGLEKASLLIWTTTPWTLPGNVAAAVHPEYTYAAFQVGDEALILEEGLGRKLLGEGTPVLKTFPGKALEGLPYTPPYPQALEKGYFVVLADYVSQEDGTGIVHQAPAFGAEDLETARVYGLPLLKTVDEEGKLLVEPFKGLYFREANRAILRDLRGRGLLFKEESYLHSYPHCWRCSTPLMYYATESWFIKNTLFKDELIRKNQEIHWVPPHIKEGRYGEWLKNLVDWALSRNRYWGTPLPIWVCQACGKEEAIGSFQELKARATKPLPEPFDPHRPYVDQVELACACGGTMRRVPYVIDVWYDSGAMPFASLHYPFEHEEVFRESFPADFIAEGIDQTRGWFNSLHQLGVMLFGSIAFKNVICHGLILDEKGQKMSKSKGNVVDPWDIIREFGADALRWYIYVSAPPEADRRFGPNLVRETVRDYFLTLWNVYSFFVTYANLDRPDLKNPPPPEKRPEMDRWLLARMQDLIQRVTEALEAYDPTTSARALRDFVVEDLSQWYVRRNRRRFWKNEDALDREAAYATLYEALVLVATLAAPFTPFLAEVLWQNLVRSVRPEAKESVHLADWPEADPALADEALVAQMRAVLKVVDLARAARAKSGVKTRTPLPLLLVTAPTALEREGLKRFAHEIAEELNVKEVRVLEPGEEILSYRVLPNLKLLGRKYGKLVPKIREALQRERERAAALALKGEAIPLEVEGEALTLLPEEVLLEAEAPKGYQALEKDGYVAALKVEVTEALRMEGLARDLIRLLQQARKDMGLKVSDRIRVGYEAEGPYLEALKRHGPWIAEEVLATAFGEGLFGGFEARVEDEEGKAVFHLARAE
Protocol: as §1, §2, §3

wt-HMGH PmIleRS1 = conditions: amino acid activation step; ATP/PPi exchange assay; Ile varied; slow tight binding inhibitor; read-out: KI (MUP)Ile; cited from earlier work
[1] = KI (MUP)ATP, amino acid activation assay, ATP as variable substrate, average ± SD of three independent experiments
[2] = KI (MUP)Ile, amino acid activation step, ATP/PPi exchange assay, Ile varied, ATP saturating, average ± SD of three independent experiments
[3] = KI, single replicates, mupirocin inhibition towards Ile, GraphPad Prism output, Repl1-Repl3

C/C(=C\C(=O)OCCCCCCCCC(=O)O)C[C@@H]1OC[C@H](C[C@@H]2O[C@H]2[C@@H](C)[C@H](C)O)[C@@H](O)[C@H]1O [mupirocin]
Ki (mut-HVGH DrIleRS2; [1]): 9.3 ± 0.4 µM | Ki (mut-HVGH DrIleRS2; [2]): 8.1 ± 0.3 µM | Ki (mut-HVGH DrIleRS2; [3]): 7.8 µM and 8.4 µM (2×) | Ki (mut-GVHH TtIleRS2; [1]): 34 ± 2 µM | Ki (mut-GVHH TtIleRS2; [2]): 35 ± 2 µM | Ki (mut-GVHH TtIleRS2; [3]): 34 µM and 35 µM and 36 µM | Ki (wt-HMGH PmIleRS1): 0.00029 ± 2e-05 µM
